“And” between values parts separate entries of the source, which are not always exact repeats. Equal entries are not always repeated. Results filed as inconclusive are left out.
System: BDF1 mice, Friend leukemia sc, tumor weight T/C
Assay: NCI In Vivo Anticancer Drug Screen. Data for tumor model Friend Virus Leukemia (Solid) (subcutaneous) in B6D2F1 (BDF1) mice
Details: endpoint: mean tumor weight, higher = larger tumour
Protocol: The antitumor activity of compounds was measured in mice bearing transplantable tumors. Survival or tumor size were measured and the results are expressed as the measurement made in the treated group (T) divided by the measurement made in the vehicle treated control group (C). The tumor model used in this assay is Friend Virus Leukemia (Solid) (subcutaneous) in B6D2F1 (BDF1) mice

[1] = dose: 1.0 mg/kg/injection, schedule: Q01DX011 (ip), vehicle: carboxymethylcellulose (CMC)
[2] = dose: 15.0 mg/kg/injection, schedule: Q01DX011 (ip), vehicle: carboxymethylcellulose (CMC)
[3] = dose: 31.0 mg/kg/injection, schedule: Q01DX011 (ip), vehicle: carboxymethylcellulose (CMC)
[4] = dose: 62.0 mg/kg/injection, schedule: Q01DX011 (ip), vehicle: carboxymethylcellulose (CMC)
[5] = dose: 125.0 mg/kg/injection, schedule: Q01DX011 (ip), vehicle: carboxymethylcellulose (CMC)
[6] = dose: 6.0 mg/kg/injection, schedule: Q01DX011 (ip), vehicle: carboxymethylcellulose (CMC)
[7] = dose: 50.0 mg/kg/injection, schedule: Q01DX011 (ip), vehicle: carboxymethylcellulose (CMC)
[8] = dose: 100.0 mg/kg/injection, schedule: Q01DX011 (ip), vehicle: carboxymethylcellulose (CMC)
[9] = dose: 200.0 mg/kg/injection, schedule: Q01DX011 (ip), vehicle: carboxymethylcellulose (CMC)

## Nc1nc(=S)c2ncn(C3OC(CO)C(O)C3O)c2[nH]1 (centres undefined)
dose: 0.18 mg/kg/injection, schedule: Q01DX011 (ip), vehicle: carboxymethylcellulose (CMC)
  T/C: 74 % of control
dose: 0.37 mg/kg/injection, schedule: Q01DX011 (ip), vehicle: carboxymethylcellulose (CMC)
  T/C: 63 % of control
dose: 0.6 mg/kg/injection, schedule: Q01DX011 (ip), vehicle: carboxymethylcellulose (CMC)
  T/C: 53 % of control
[1]
  T/C: 36 % of control
dose: 1.5 mg/kg/injection, schedule: Q01DX011 (ip), vehicle: carboxymethylcellulose (CMC)
  T/C: 31 % of control and 48 % of control

## O=[N+]([O-])c1ccccc1CSc1ncnc2nc[nH]c12
[2]
  T/C: 112 % of control
[3]
  T/C: 111 % of control
[4]
  T/C: 55 % of control and 48 % of control
[5]
  T/C: 26 % of control and 48 % of control
dose: 250.0 mg/kg/injection, schedule: Q01DX011 (ip), vehicle: carboxymethylcellulose (CMC)
  T/C: 7 % of control
dose: 500.0 mg/kg/injection, schedule: Q01DX011 (ip), vehicle: carboxymethylcellulose (CMC)
  T/C: 2 % of control

## CC1(C)N=C(N)N=C(N)N1c1cccc(Cl)c1
dose: 2.3 mg/kg/injection, schedule: Q01DX011 (ip), vehicle: carboxymethylcellulose (CMC)
  T/C: 91 % of control
dose: 4.6 mg/kg/injection, schedule: Q01DX011 (ip), vehicle: carboxymethylcellulose (CMC)
  T/C: 104 % of control
dose: 9.2 mg/kg/injection, schedule: Q01DX011 (ip), vehicle: carboxymethylcellulose (CMC)
  T/C: 108 % of control

## O=C1C=CC(=Nc2ccc(O)c3ncccc23)c2cccnc21
[6]
  T/C: 71 % of control
dose: 12.5 mg/kg/injection, schedule: Q01DX011 (ip), vehicle: carboxymethylcellulose (CMC)
  T/C: 84 % of control

## Cc1nc2nc(N)nc(N)c2nc1C
dose: 13.12 mg/kg/injection, schedule: Q01DX011 (ip), vehicle: carboxymethylcellulose (CMC)
  T/C: 103 % of control
dose: 26.25 mg/kg/injection, schedule: Q01DX011 (ip), vehicle: carboxymethylcellulose (CMC)
  T/C: 89 % of control
dose: 52.5 mg/kg/injection, schedule: Q01DX011 (ip), vehicle: carboxymethylcellulose (CMC)
  T/C: 52 % of control
dose: 105.0 mg/kg/injection, schedule: Q01DX011 (ip), vehicle: carboxymethylcellulose (CMC)
  T/C: 61 % of control

## CNCc1ccccc1
dose: 43.5 mg/kg/injection, schedule: Q01DX011 (ip), vehicle: saline
  T/C: 110 % of control
dose: 87.0 mg/kg/injection, schedule: Q01DX011 (ip), vehicle: saline
  T/C: 100 % of control

## O=C(N[C@H](CO)[C@H](O)c1ccc([N+](=O)[O-])cc1)C(Cl)Cl
dose: 47.0 mg/kg/injection, schedule: Q01DX011 (ip), vehicle: carboxymethylcellulose (CMC)
  T/C: 105 % of control
dose: 95.0 mg/kg/injection, schedule: Q01DX011 (ip), vehicle: carboxymethylcellulose (CMC)
  T/C: 98 % of control
dose: 191.0 mg/kg/injection, schedule: Q01DX011 (ip), vehicle: carboxymethylcellulose (CMC)
  T/C: 77 % of control
dose: 383.0 mg/kg/injection, schedule: Q01DX011 (ip), vehicle: carboxymethylcellulose (CMC)
  T/C: 108 % of control

## CCC(=O)NC1=C(N2CC2)C(=O)C(NC(=O)CC)=C(N2CC2)C1=O
dose: 0.39 mg/kg/injection, schedule: Q01DX011 (ip), vehicle: carboxymethylcellulose (CMC)
  T/C: 61 % of control
dose: 0.78 mg/kg/injection, schedule: Q01DX011 (ip), vehicle: carboxymethylcellulose (CMC)
  T/C: 48 % of control
dose: 1.56 mg/kg/injection, schedule: Q01DX011 (ip), vehicle: carboxymethylcellulose (CMC)
  T/C: 24 % of control
dose: 3.12 mg/kg/injection, schedule: Q01DX011 (ip), vehicle: carboxymethylcellulose (CMC)
  T/C: 7 % of control

## Nc1nc(=S)c2[nH]cnc2[nH]1
dose: 0.25 mg/kg/injection, schedule: Q01DX011 (ip), vehicle: carboxymethylcellulose (CMC)
  T/C: 53 % of control and 47 % of control
dose: 0.4 mg/kg/injection, schedule: Q01DX011 (ip), vehicle: carboxymethylcellulose (CMC)
  T/C: 33 % of control and 36 % of control
dose: 0.66 mg/kg/injection, schedule: Q01DX011 (ip), vehicle: carboxymethylcellulose (CMC)
  T/C: 23 % of control and 26 % of control

## O=C(C[N+]12CN3CN(CN(C3)C1)C2)c1ccc(Cl)cc1
dose: 37.5 mg/kg/injection, schedule: Q01DX011 (ip), vehicle: carboxymethylcellulose (CMC)
  T/C: 101 % of control
dose: 150.0 mg/kg/injection, schedule: Q01DX011 (ip), vehicle: carboxymethylcellulose (CMC)
  T/C: 117 % of control
dose: 300.0 mg/kg/injection, schedule: Q01DX011 (ip), vehicle: carboxymethylcellulose (CMC)
  T/C: 93 % of control

## O=C(Nc1ccc(C2=NCCCN2)cc1)c1ccc(NC(=O)c2ccc(C3=NCCCN3)cc2)cc1
dose: 4.0 mg/kg/injection, schedule: Q01DX011 (ip), vehicle: carboxymethylcellulose (CMC)
  T/C: 49 % of control
[6]
  T/C: 9 % of control
dose: 8.0 mg/kg/injection, schedule: Q01DX011 (ip), vehicle: carboxymethylcellulose (CMC)
  T/C: 1 % of control

## O=C(O)c1cc(O)c(O)c(O)c1
dose: 50.0 mg/kg/injection, schedule: Q01DX011 (ip), vehicle: alkali diluted with saline
  T/C: 85 % of control
dose: 100.0 mg/kg/injection, schedule: Q01DX011 (ip), vehicle: alkali diluted with saline
  T/C: 79 % of control
dose: 200.0 mg/kg/injection, schedule: Q01DX011 (ip), vehicle: alkali diluted with saline
  T/C: 84 % of control
dose: 400.0 mg/kg/injection, schedule: Q01DX011 (ip), vehicle: alkali diluted with saline
  T/C: 95 % of control

## c1ccc(CNc2ncnc3[nH]ncc23)cc1
dose: 1.12 mg/kg/injection, schedule: Q01DX011 (ip), vehicle: carboxymethylcellulose (CMC)
  T/C: 109 % of control
dose: 2.25 mg/kg/injection, schedule: Q01DX011 (ip), vehicle: carboxymethylcellulose (CMC)
  T/C: 77 % of control
dose: 4.5 mg/kg/injection, schedule: Q01DX011 (ip), vehicle: carboxymethylcellulose (CMC)
  T/C: 78 % of control
dose: 9.0 mg/kg/injection, schedule: Q01DX011 (ip), vehicle: carboxymethylcellulose (CMC)
  T/C: 117 % of control
dose: 18.5 mg/kg/injection, schedule: Q01DX011 (ip), vehicle: carboxymethylcellulose (CMC)
  T/C: 15 % of control

## Nc1ccc(OC(=O)Oc2ccc(N)cc2)cc1
[3]
  T/C: 105 % of control
[4]
  T/C: 68 % of control
[5]
  T/C: 28 % of control

## CCCn1cnc2c(SCc3ccccc3Cl)nc(N)nc21
[7]
  T/C: 57 % of control
[8]
  T/C: 41 % of control
[9]
  T/C: 12 % of control
dose: 400.0 mg/kg/injection, schedule: Q01DX011 (ip), vehicle: carboxymethylcellulose (CMC)
  T/C: 5 % of control

## O=C1C=CC(=O)O1 (tested in a mixture with another compound)
dose: 7.5 mg/kg/injection, schedule: Q#A X022 (ip), vehicle: carboxymethylcellulose (CMC)
  T/C: 58 % of control
dose: 15.5 mg/kg/injection, schedule: Q#A X022 (ip), vehicle: carboxymethylcellulose (CMC)
  T/C: 84 % of control
dose: 125.0 mg/kg/injection, schedule: Q#A X022 (ip), vehicle: carboxymethylcellulose (CMC)
  T/C: 96 % of control
dose: 250.0 mg/kg/injection, schedule: Q#A X022 (ip), vehicle: carboxymethylcellulose (CMC)
  T/C: 33 % of control

## O=CN(O)CC(=O)O
dose: 125.0 mg/kg/injection, schedule: Q01DX011 (ip), vehicle: saline
  T/C: 154 % of control
dose: 250.0 mg/kg/injection, schedule: Q01DX011 (ip), vehicle: saline
  T/C: 196 % of control
dose: 375.0 mg/kg/injection, schedule: Q01DX011 (ip), vehicle: saline
  T/C: 193 % of control

## Nc1nc(SCc2ccccc2Cl)c2[nH]cnc2n1
[1]
  T/C: 88 % of control
dose: 3.0 mg/kg/injection, schedule: Q01DX011 (ip), vehicle: carboxymethylcellulose (CMC)
  T/C: 77 % of control
[6]
  T/C: 67 % of control
dose: 12.0 mg/kg/injection, schedule: Q01DX011 (ip), vehicle: carboxymethylcellulose (CMC)
  T/C: 28 % of control
dose: 25.0 mg/kg/injection, schedule: Q01DX011 (ip), vehicle: carboxymethylcellulose (CMC)
  T/C: 18 % of control
[7]
  T/C: 7 % of control
[8]
  T/C: 2 % of control

## CCN(CC)CCNc1ccc([N+](=O)[O-])c2sc3ccccc3c(=O)c12
dose: 20.0 mg/kg/injection, schedule: Q01DX011 (ip), vehicle: saline
  T/C: 87 % of control
dose: 40.0 mg/kg/injection, schedule: Q01DX011 (ip), vehicle: saline
  T/C: 110 % of control

## C[C@@H]1C[C@@H]([C@H](O)CC2CC(=O)NC(=O)C2)C(=O)[C@@H](C)C1
dose: 4.3 mg/kg/injection, schedule: Q01DX011 (ip), vehicle: carboxymethylcellulose (CMC)
  T/C: 80 % of control
[2]
  T/C: 31 % of control and 46 % of control

## Cn1c(=O)c2[nH]c(CCCc3nc4c([nH]3)c(=O)n(C)c(=O)n4C)nc2n(C)c1=O
dose: 20.0 mg/kg/injection, schedule: Q01DX011 (ip), vehicle: carboxymethylcellulose (CMC)
  T/C: 101 % of control
dose: 40.0 mg/kg/injection, schedule: Q01DX011 (ip), vehicle: carboxymethylcellulose (CMC)
  T/C: 94 % of control
dose: 80.0 mg/kg/injection, schedule: Q01DX011 (ip), vehicle: carboxymethylcellulose (CMC)
  T/C: 44 % of control

## Nc1nc(N)c(N=Nc2ccccc2)c(=O)[nH]1
[7]
  T/C: 74 % of control
[8]
  T/C: 70 % of control
[9]
  T/C: 60 % of control

Reference: PubChem BioAssay AID228 (DTP/NCI, 2004)
